Experimental data taken from PubChem BioAssay (NCI).
Where “and” joins values, the source holds several entries; their conditions need not be identical. Equal values may be shown once.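 Briefly, cells in 96-well plates were exposed to five compound concentrations for 48 h, and endpoints were estimated by linear interpolation. The concentration for 50% growth inhibition is given as GI50. TGI: concentration producing complete growth inhibition.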

Assays:
Test in all cases: NCI anticancer screen, dose series, 48 h
SN12C renal = tested on: SN12C renal
SK-OV-3 ovarian = tested on: SK-OV-3 ovarian
HOP-62 NSCLC = tested on: HOP-62 NSCLC
T-47D breast = tested on: T-47D breast
EKVX NSCLC = tested on: EKVX NSCLC
MOLT-4 leukemia = tested on: MOLT-4 leukemia
MDA-MB-231 breast = tested on: MDA-MB-231 breast
KM12 colon = tested on: KM12 colon
SK-MEL-28 melanoma = tested on: SK-MEL-28 melanoma
COLO 205 colon = tested on: COLO 205 colon

SMILES | GI50 (SN12C renal) | TGI (SN12C renal) | GI50 (SK-OV-3 ovarian) | TGI (SK-OV-3 ovarian) | GI50 (HOP-62 NSCLC) | TGI (HOP-62 NSCLC) | GI50 (T-47D breast) | TGI (T-47D breast) | GI50 (EKVX NSCLC) | TGI (EKVX NSCLC) | TGI (MOLT-4 leukemia) | GI50 (MDA-MB-231 breast) | TGI (MDA-MB-231 breast) | GI50 (KM12 colon) | TGI (KM12 colon) | GI50 (SK-MEL-28 melanoma) | TGI (SK-MEL-28 melanoma) | GI50 (COLO 205 colon) | TGI (COLO 205 colon) | GI50 (MOLT-4 leukemia)
COc1cccc2c1C(=O)c1c(O)c3c(c(O)c1C2=O)C[C@@](O)(C(=O)CO)C[C@@H]3OC1C[C@H](N)[C@H](O)[C@H](C)O1 (stereo partly drawn) | 0.0253 µM | 7.44 µM | 0.107 µM | 10.9 µM | 0.033 µM | 0.323 µM | 0.0409 µM | 1.06 µM | 0.201 µM | 5.28 µM | 0.105 µM | 0.144 µM | 5.41 µM | 0.135 µM | 6.27 µM | 0.0797 µM | 0.198 µM | 0.0904 µM | 0.446 µM | 
c1ccc(-c2nc(-c3ccccc3)c(-c3ccccc3)[nH]2)cc1 |  | > 100 µM |  | > 100 µM |  | > 100 µM |  | > 100 µM |  | > 100 µM | > 57 µM |  | > 100 µM |  | > 100 µM |  | > 100 µM |  | > 100 µM | 
C=CCC(N[C@H](CO)c1ccccc1)c1cn(C(=O)OCC)c2ccccc12 (stereo partly drawn) | 18.3 µM | 32.7 µM | 31.3 µM | > 100 µM | 14.5 µM | 27.9 µM | 25.1 µM | > 100 µM | 17.5 µM | 37.3 µM | 41.6 µM | 15.7 µM | 31.3 µM | 16.7 µM | 34.8 µM | 28.4 µM | 66.1 µM | 19.5 µM | 65.6 µM | 17.8 µM
O=C(c1ccco1)c1c(C(F)(F)F)n([O-])c2ccccc2[n+]1=O | 0.618 µM | 3.1 µM | 6.69 µM | 21 µM | 0.949 µM | 4.34 µM | 1.97 µM | 29.7 µM | 0.226 µM | 0.741 µM | 0.564 µM | 0.772 µM | 3.6 µM | 0.911 µM | 8.18 µM | 15.9 µM | 50 µM | 3.32 µM | 28.5 µM | 0.102 µM
COc1cc2c[n+](C)c3c4ccccc4ccc3c2cc1OC (tested in a mixture with another compound) | 1.07 µM | 5.58 µM and 17.7 µM |  | 51.2 µM | 6.41 µM | 49.7 µM | 4.68 µM | 63.3 µM | 1.47 µM | 41.8 µM | 50.5 µM | 10.3 µM | 9.2 µM and 25.6 µM | 0.544 µM | 2.5 µM and 13.2 µM | 2.89 µM | 8.22 µM and 18.6 µM | 1.46 µM | 5.02 µM and 14 µM | 0.514 µM
O=C(O)c1ccc(N/C=C2\C(=O)c3ccccc3OC2O)cc1O (stereo not drawn) | 20.2 µg/mL | 58.8 µg/mL | 28.8 µg/mL | 74.6 µg/mL | 24.8 µg/mL | 63.7 µg/mL | 6.18 µg/mL | 50.3 µg/mL | 23.9 µg/mL | 82.5 µg/mL | 77.9 µg/mL | 22 µg/mL | 54.6 µg/mL | 23.4 µg/mL | 48.5 µg/mL | 25.1 µg/mL | 69.2 µg/mL | 30.5 µg/mL | 76.4 µg/mL | 13.2 µg/mL
C#Cc1c(C(N)=O)ncn1C1OC(COP(=O)(OCc2ccc([N+](=O)[O-])o2)N(C)CCCCCl)C(O)C1O (stereo not drawn) | 48.3 µM | > 100 µM | 77 µM | > 100 µM | 49.3 µM | > 100 µM | 12.7 µM | > 100 µM | 82.9 µM | > 100 µM | > 100 µM | > 100 µM | > 100 µM | 42.7 µM | > 100 µM | 27.3 µM | > 100 µM | 5.5 µM | 88.2 µM | 83.7 µM
CC(=O)O/N=C1/C(c2c(O)[nH]c3cc(Br)ccc23)=Nc2ccccc21 | 0.873 µM | 2.58 µM | 0.421 µM | 1.96 µM | 2.05 µM | 4.53 µM | 2.59 µM | 7.82 µM | 1.37 µM | 2.95 µM | 5.07 µM | 1.53 µM | 3.77 µM | 0.398 µM | 1.91 µM | 2.22 µM | 4.9 µM | 1.57 µM | 3 µM | 1.78 µM
CCOC(=O)/C=C/C(C(=O)/C=C/c1ccc(O)c(OC)c1)=C(O)\C=C\c1ccc(O)c(OC)c1 | 1.88 µM | 8.16 µM | 8.07 µM | 25.4 µM | 3.19 µM | 16.1 µM | 8.07 µM | > 100 µM | 5.75 µM | 42 µM | > 100 µM | 2 µM | 8.55 µM | 3.96 µM | > 100 µM | 2 µM | 6.09 µM | 3.14 µM | 12.8 µM | 4.27 µM
NS(=O)(=O)c1cccc(N=Cc2c(O)[nH]c3ccccc23)c1 | > 25 µM | > 25 µM | > 18.5 µM | > 25 µM | > 25 µM | > 25 µM | > 25 µM | > 25 µM | > 25 µM | > 25 µM | > 25 µM | > 25 µM | > 25 µM | 8.04 µM | > 25 µM | > 25 µM | > 25 µM | > 25 µM | > 25 µM | > 25 µM
Cc1cc(Cc2cc(C)cc(C(C)(C)C)c2O)c(O)c(C(C)(C)C)c1 | 11.9 µM | 24.1 µM | 11.9 µM | 24.2 µM | 14.1 µM | 27.1 µM | 4.7 µM | 16.8 µM | 2.81 µM | 12.1 µM | > 100 µM | 9.83 µM | 21.7 µM | 3.79 µM | 13.6 µM | 12.9 µM | 25.6 µM | 6.73 µM | 19.6 µM | 6.27 µM
COc1cccc(/C=C/c2cnc3ccccc3n2)c1OC |  | > 100 µM |  | > 100 µM |  | 64.9 µM |  | 82.9 µM |  | > 100 µM | 68.1 µM |  | > 100 µM |  | > 100 µM |  | > 100 µM |  | > 100 µM | 
C=CCC1(O)c2cccc(NCCO)c2C(=O)c2c(NCCO)cccc21 | > 100 µM | > 100 µM | > 100 µM | > 100 µM | > 100 µM | > 100 µM | > 100 µM | > 100 µM | > 100 µM | > 100 µM | > 100 µM | > 100 µM | > 100 µM | > 100 µM | > 100 µM | > 100 µM | > 100 µM | > 100 µM | > 100 µM | > 100 µM
O=C(O)c1cc2cc(OCc3ccccc3)c(OCc3ccccc3)cc2[nH]1 | 33.1 µM | > 100 µM | 29.5 µM | > 100 µM | 16.4 µM | 52.4 µM | 23.9 µM | > 100 µM | 17.8 µM | 38.9 µM | > 100 µM | 28.2 µM | 79 µM | 19.3 µM | 36.2 µM | 19.5 µM | 43.2 µM | 19.9 µM | 36.1 µM | 25 µM
COc1ccc(/C=C/C(=O)Oc2cc(O)cc(O)c2)cc1 |  | > 100 µM |  | > 100 µM |  | 31.5 µM |  | > 100 µM |  | > 100 µM | 30.7 µM |  | > 100 µM |  | 28.4 µM |  | > 100 µM |  | > 100 µM | 
S=C1Nc2ccc(Cl)cc2C2(c3ccccc3)N3CCN=C3NN12 (stereo not drawn) | 35.3 µM | > 100 µM | > 100 µM | > 100 µM | 33.3 µM | > 100 µM | 30.8 µM | 99 µM | 55.7 µM | > 100 µM | 61.6 µM | 32.5 µM | > 100 µM | 52.1 µM | > 100 µM | 30.9 µM | > 100 µM | 26.3 µM | > 100 µM | 22.8 µM
c1cn2cc(-c3ccc4cn[nH]c4c3)nc(Nc3ccc(N4CCOCC4)cc3)c2n1 | 17 µM | 41.2 µM | 6.43 µM | 19.6 µM | 3.81 µM | 16.1 µM | 12 µM | 30.9 µM | 14.8 µM | 41.8 µM | > 100 µM | 12.6 µM | 26.7 µM | 0.479 µM | 59 µM | 13 µM | 40.5 µM | 41.3 µM | > 100 µM | 96.9 µM
C=C1C(=O)O[C@H]2[C@H]1CC/C(COC(=O)NCCc1c[nH]c3ccc(OC)cc13)=C\CC[C@@]1(C)O[C@@H]21 | 1.81 µM | 3.8 µM | 14.1 µM | 27.2 µM | 3.49 µM | 15.7 µM | 1.81 µM | 4.53 µM | 1.94 µM | 5.45 µM | 5.88 µM | 1.97 µM | 4.44 µM | 6.49 µM | 23.2 µM | 1.65 µM | 3.22 µM | 1.3 µM | 2.78 µM | 2.22 µM
O=c1[nH]cnc2[nH]ncc12 | 485 µM | > 5000 µM | > 85.9 µM and 111 µM | > 4080 µM | 353 µM | > 5000 µM | 698 µM | > 5000 µM | 785 µM | > 5000 µM | > 5000 µM | 163 µM | 1750 µM | 1250 µM | > 5000 µM | 2000 µM | > 5000 µM | 440 µM | > 5000 µM | 972 µM
